Tested on: MDA-MB-231 complex spheroids, growth inhibition
Assay: Anticancer human tumor MDA-MB-231 cell line growth inhibition [Asc];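 further: spheroids exposed to compounds for 7 days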
Conditions: for IC50: curve of first compound; for viability, T/C: stronger effect = lower value
Method: Multicellular complex tumor spheroid response to apoptosis pathway targeting inhibitors Alrizomadlin, Pelcitoclax, and Dasminapant in combination with a variety of drugs and investigational agents in selected tumor cell lines
The MDM2 inhibitor alrizomadlin, the Bcl-2/Bcl-xL inhibitor pelcitoclax, and the IAPs inhibitor dasminapant were evaluated both individually and in combination with standard of care and investigational anticancer small molecules within a complex spheroid model of solid tumors. . Complex spheroids include a stromal component modeled by human endothelial cells (HUVEC) and fibroblasts modeled by human mesenchymal stem cells (MSCs). The concentration ranges selected for each drug and investigational agent were based upon clinically achievable concentrations if the clinical Cmax of the agent was known.
Compounds. The drugs and investigational agents: alrizomadlin (APG-115; NSC831270), pelcitoclax (APG-1252; NSC835773), dasminapant (APG-1387;NSC834197), TAK-243 (NSC785004), copanlisib (NSC809693), olaparib (NSC753686), talazoparib (NSC767125), cobimetinib (NSC 768068), eltanexor (KPT-8602, NSC 794443), abemaciclib (NSC 768073), sotorasib (NSC818433), adagrasib (NSC 831453), MRTX-1133 (NSC 836407), Iadademestat (ORY1001, NSC 806812), and RMC-4630 (NSC839698), were obtained from the NCI Developmental Therapeutics Program Chemical Repository. The FDA-approved anticancer drug set is available from the Developmental Therapeutics Program at https://dtp.cancer.gov/organization/dscb/obtaining/available plates.htm. […] The stock solutions were prepared in dimethyl sulfoxide (DMSO, Sigma-Aldrich, St. Louis, MO, cat. D2650) at 800-fold the tested concentration and stored at -70 degrees C prior to their use. All drugs and investigational agents were tested over a range starting from a high concentration at or near the clinical Cmax and decreasing in half-log increments. If the clinical Cmax for an agent had not been determined, the highest concentration tested was 10 microM.
The patient-derived cancer (PDC) cell lines include five colon adenocarcinomas: 186277-243-T-J2-PDC, 616215-338-R-J1-PDC, 439559-082-T-J2-PDC, 463943-066-T-J2-PDC, and 519858-162-T-J1-PDC; three pancreatic carcinomas: 323965-272-R-J2-PDC, 521955-158-R6-J3-PDC, and 521955-158-R2-J5-PDC; two uterine sarcomas: 327498-152-R-J2-PDC and 993429-296-R-J1-PDC; two rhabdomyosarcomas: 755483-174-R-J1-PDC and 772245-204-R-J1-PDC; two soft tissue sarcomas: 126254-015-R-J1-PDC and 494315-158-R-J1-PDC; two malignant fibrous histiocytomas: 317291-083-R-J1-PDC and 596521-263-R-J1-PDC; two breast carcinomas: 171881-019-R-J1-PDC and 885512-296-R-J2-PDC; and one ovarian carcinoma: 6556581-035-R-J-PDC were obtained from the NCI PDMR, (https://pdmr.cancer.gov). The established cell lines HSSY-2 synovial sarcoma (RRID:CVCL 8719), SYO-1 synovial sarcoma (RRID:CVCL_7146), MPNST malignant peripheral neural sheath tumor were obtained from the Sloan Kettering Institute. The following established cell lines were purchased from the American Type Culture Collection (ATCC, Manassas, VA), Sor the received from the NCI repository:, PANC-1 pancreatic carcinoma (CRL-1469, RRID:CVCL_0480), OVCAR-5 ovarian carcinoma (RRID:CVCL_1628), OVCAR-8 ovarian carcinoma (RRID:CVCL_1629), , MCF-7 breast carcinoma (CRL-12584, RRID:CVCL_0031), MDA-MB-231 breast carcinoma (CRL-12532, RRID:CVCL_0062), NCI-H1876 small cell lung carcinoma (CRL-5902, RRID:CVCL_1503), NCI-H510A small cell lung carcinoma (HTB-184, RRID:CVCL_1565), NCI-H1417 (CRL-5869, RRID:CVCL_1469), and NCI-H196 small cell lung carcinoma (CRL-5823, RRID:CVCL_1509). Dr. Peter Houghton (Greehey Children's Cancer Research Institute, University of Texas Health Science Center, San Antonio, TX) provided Rh-18 rhabdomyosarcoma (RRID:CVCL_1659). Pooled donor human umbilical vein endothelial cells (HUVEC, Lonza, cat. CC-2519) and human mesenchymal stem cells (hMSC, Lonza, cat. PT-2501) were purchased from Lonza (Walkersville, MD).
Cell Culture. […]

[1] = second compound 0.03 µM, first compound 0.00316 µM
[2] = second compound 0.03 µM, first compound 0.01 µM
[3] = second compound 0.03 µM, first compound 0.0316 µM
[4] = second compound 0.03 µM, first compound 0.1 µM
[5] = second compound 0.03 µM, first compound 0.316 µM
[6] = second compound 0.03 µM, first compound 1 µM
[7] = second compound 0.0949 µM, first compound 0.00316 µM
[8] = second compound 0.0949 µM, first compound 0.01 µM
[9] = second compound 0.0949 µM, first compound 0.0316 µM
[10] = second compound 0.0949 µM, first compound 0.1 µM
[11] = second compound 0.0949 µM, first compound 0.316 µM
[12] = second compound 0.0949 µM, first compound 1 µM
[13] = second compound 0.3 µM, first compound 0.00316 µM
[14] = second compound 0.3 µM, first compound 0.01 µM
[15] = second compound 0.3 µM, first compound 0.0316 µM
[16] = second compound 0.3 µM, first compound 0.1 µM
[17] = second compound 0.3 µM, first compound 0.316 µM
[18] = second compound 0.3 µM, first compound 1 µM
[19] = second compound 0.949 µM, first compound 0.00316 µM
[20] = second compound 0.949 µM, first compound 0.01 µM
[21] = second compound 0.949 µM, first compound 0.0316 µM
[22] = second compound 0.949 µM, first compound 0.1 µM
[23] = second compound 0.949 µM, first compound 0.316 µM
[24] = second compound 0.949 µM, first compound 1 µM
[25] = second compound 3 µM, first compound 0.00316 µM
[26] = second compound 3 µM, first compound 0.01 µM
[27] = second compound 3 µM, first compound 0.0316 µM
[28] = second compound 3 µM, first compound 0.1 µM
[29] = second compound 3 µM, first compound 0.316 µM
[30] = second compound 3 µM, first compound 1 µM

Row | Compound | IC50 (second compound 0.03 µM) [µM] | IC50 (second compound 0.0949 µM) [µM] | IC50 (second compound 0.3 µM) [µM] | IC50 (second compound 0.949 µM) [µM] | IC50 (second compound 3 µM) [µM] | viability, T/C [1] [%] | viability, T/C [2] [%] | viability, T/C [3] [%] | viability, T/C [4] [%] | viability, T/C [5] [%] | viability, T/C [6] [%] | viability, T/C [7] [%] | viability, T/C [8] [%] | viability, T/C [9] [%] | viability, T/C [10] [%] | viability, T/C [11] [%] | viability, T/C [12] [%] | viability, T/C [13] [%] | viability, T/C [14] [%] | viability, T/C [15] [%] | further results
1 | CCN1CCN(Cc2ccc(Nc3ncc(F)c(-c4cc(F)c5nc(C)n(C(C)C)c5c4)n3)nc2)CC1 + CCN1C(C(=O)NC23CCC(C(=O)O)(CC2)CC3)C(c2cccc(Cl)c2F)C2(C(=O)Nc3cc(Cl)ccc32)C12CCCCC2 | 0.305 | 0.479 | > 1 | > 1 | > 1 | 102 | 94.3 | 76.6 | 59 | 49.8 | 46.6 | 109 | 98.8 | 79.7 | 61.8 | 50.5 | 48.1 | 103 | 99.9 | 86.9 | viability, T/C [16]: 67%; viability, T/C [17]: 55%; viability, T/C [18]: 52.7%; viability, T/C [19]: 105%; viability, T/C [20]: 101%; viability, T/C [21]: 85.5%; viability, T/C [22]: 67.2%; viability, T/C [23]: 52.8%; viability, T/C [24]: 53%; viability, T/C [25]: 94.8%; viability, T/C [26]: 86.6%; viability, T/C [27]: 73.6%; viability, T/C [28]: 54.5%; viability, T/C [29]: 49.1%; viability, T/C [30]: 52.6%
2 | O=C(c1ccc(F)c(F)c1Nc1ccc(I)cc1F)N1CC(O)([C@@H]2CCCCN2)C1 + CCN1C(C(=O)NC23CCC(C(=O)O)(CC2)CC3)C(c2cccc(Cl)c2F)C2(C(=O)Nc3cc(Cl)ccc32)C12CCCCC2 | 0.0562 | 0.0569 | 0.0452 | 0.036 | 0.0145 | 81.9 | 65.3 | 53.4 | 47.6 | 30.3 | 5.13 | 84.8 | 64.5 | 54.1 | 47.6 | 30.6 | 4.62 | 95.7 | 63.6 | 53.2 | viability, T/C [16]: 44.4%; viability, T/C [17]: 27.3%; viability, T/C [18]: 4.93%; viability, T/C [19]: 86%; viability, T/C [20]: 58.5%; viability, T/C [21]: 52.3%; viability, T/C [22]: 40.3%; viability, T/C [23]: 22.6%; viability, T/C [24]: 4.93%; viability, T/C [25]: 70.9%; viability, T/C [26]: 48.6%; viability, T/C [27]: 43%; viability, T/C [28]: 31.7%; viability, T/C [29]: 11.5%; viability, T/C [30]: 4.76%

— PubChem BioAssay AID1963443 (Molecular Pharmacology Branch, DTP, NCI, 2024)
